This is an account of results in patent US11795511B2, “Methods and compositions for the prognosis and treatment of relapsed leukemia” (NEW YORK UNIVERSITY, priority 2012, dated 2023).

Assay [1] relates to Reh cells. Put plainly: Apoptosis assay (Annexin V-PE / 7-AAD, flow cytometry) of Reh cells transduced with wild-type or mutant cN-II after drug treatment. The following applies: Reh cells transduced with lentiviruses encoding wild-type or mutant (Arg238Trp, Arg367Gln or Ser445Phe) cN-II; incubation 24-72 h. It is filed as cell-based. The method, then:
Cell Culture and Drug Treatment. Reh cells obtained from the American Type Culture Collection (ATCC) were grown in RPMI1640 supplemented with 10% FBS, 10 mM HEPES and 1% penicillin-streptomycin under 5% CO2 at 37° C. 293T cells (ATCC) were grown in DMEM supplemented with 10% FBS and 1% penicillin-streptomycin under 5% CO2 at 37° C. 6-mercaptopurine, 6-thioguanine, cytarabine, doxorubicin, gemcitabine and prednisolone (Sigma) were serially diluted in RPMI before use at the indicated concentrations.
Transient Transfection and Lentivirus Gene Transfer. NT5C2 DNA for wild-type and mutant (Arg238Trp, Arg367Gln and Ser445Phe) was cloned into the lentiviral vector pLenti using SalI and XbaI restriction sites. All plasmids were sequence verified. cDNA constructs were transfected into 293T cells along with helper plasmids using the calcium phosphate method to produce replication-defective virus. Supernatant was harvested 48 h later and used to transduce Reh cells (whose NT5C2 sequence was verified as wild type) supplemented with […] polybrene (Sigma). Virus-containing medium was replaced 24 h after infection. Cells were monitored 72 h after infection for infection efficiency by the detection of GFP-positive cells using a FACScan (BD). Infected cells were plated (200,000 cells per well in […] of medium) in triplicate for drug treatment with 6-mercaptopurine, 6-thioguanine, cytarabine, doxorubicin, gemcitabine and prednisolone (Sigma). Cells were incubated for 24-72 h and then assayed for apoptosis by Annexin V-PE and 7-AAD staining (Annexin V-PE Apoptosis Detection kit, BD Pharmingen) followed by flow cytometry analysis using a FACScan. The percentages of cells positive and negative for Annexin V and/or 7-AAD staining were analyzed with FlowJo software (version 7.6.1, Tree Star). Data were plotted relative to results obtained with no chemotherapy treatment, and error bars represent the standard deviation from three independent determinations. Cells (1×10^6) were harvested for protein at the time of plating. Briefly, cells were pelleted at 200 g for 5 min and resuspended in […] of RIPA buffer with 1× protease inhibitors (GE Healthcare), incubated on ice for 15 min and centrifuged at 15,000 g for 10 min at 4° C. Protein was subjected to electrophoresis on 9% SDS-Tris acrylamide gels and transferred to PVDF membranes. Membranes were incubated with a 1:5,000 dilution of antibody to Flag (F3165, Sigma), incubated with a 1:10,000 dilution of HRP-conjugated secondary antibody to mouse (GE Healthcare) and developed using ECL (GE Healthcare).
(In flow cytometry, cells or beads pass a laser one at a time.)

In the next assay the target is cN-II (Homo sapiens, UniProt P49902). The settings on record: cited from earlier work.
Assay [2] concerns Reh cells. Put plainly: HPLC determination of thioguanine nucleotides in Reh cells after 6-mercaptopurine treatment. In kind it is cell-based. The following applies: 6-mercaptopurine treatment for 24 h. How it is done: HPLC determination of nucleotides. Reh cells were transiently infected with NT5C2 constructs. After infection, cells were treated with 10 mM 6-mercaptopurine for 24 h in duplicate. After 24 h, 5×10^6 cells were washed twice with PBS, and cell pellets were frozen at −80° C. Intraceullar accumulation of thioguanine nucleotides (6-mercaptopurine active metabolites) was determined by a reversed-phase liquid chromatography assay as described previously (Dervieux et al., “HPLC Determination of Thiopurine Nucleosides and Nucleotides In Vivo in Lymphoblasts Following Mercaptopurine Therapy,” Clin. Chem. 48: 61-68 (2002), which is hereby incorporated by reference in its entirety).

Sequence of cN-II (P49902 whole entry): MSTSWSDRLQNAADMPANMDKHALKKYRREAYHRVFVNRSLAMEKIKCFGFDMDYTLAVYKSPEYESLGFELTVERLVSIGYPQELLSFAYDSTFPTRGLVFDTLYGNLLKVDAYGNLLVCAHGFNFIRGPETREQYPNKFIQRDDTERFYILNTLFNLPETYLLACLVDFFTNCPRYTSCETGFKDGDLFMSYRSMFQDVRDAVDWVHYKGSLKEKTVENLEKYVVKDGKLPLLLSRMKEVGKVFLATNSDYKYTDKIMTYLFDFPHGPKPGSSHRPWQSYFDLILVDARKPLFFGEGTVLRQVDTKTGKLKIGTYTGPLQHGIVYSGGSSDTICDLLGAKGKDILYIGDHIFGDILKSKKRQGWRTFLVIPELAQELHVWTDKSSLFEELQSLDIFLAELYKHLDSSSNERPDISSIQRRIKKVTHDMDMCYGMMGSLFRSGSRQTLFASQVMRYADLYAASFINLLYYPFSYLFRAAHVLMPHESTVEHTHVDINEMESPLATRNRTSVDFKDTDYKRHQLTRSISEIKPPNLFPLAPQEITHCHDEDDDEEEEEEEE

With `Nc1ccn([C@@H]2O[C@H](CO)[C@@H](O)C2(F)F)c(=O)n1` [gemcitabine], in the assay on Reh cells [1], the “resistance to apoptosis of cells expressing mutant forms of cN-II compared to cells expressing wild-type protein” value is “no resistance was seen”.
Still for that read-out and setting: with `Nc1ccn([C@@H]2O[C@H](CO)[C@@H](O)[C@@H]2O)c(=O)n1` [cytarabine] the entry was “no resistance was seen”.
Turning to `Nc1ccn([C@@H]2O[C@H](COP(=O)(O)O)[C@@H](O)[C@@H]2O)c(=O)n1` [araC monophosphate], at cN-II, the “hydrolysis by the purified enzyme” value is given as “does not hydrolyze”.
For `COc1cccc2c1C(=O)c1c(O)c3c(c(O)c1C2=O)C[C@@](O)(C(=O)CO)C[C@@H]3O[C@H]1C[C@H](N)[C@H](O)[C@H](C)O1` [doxorubicin], the “resistance to apoptosis of cells expressing mutant forms of cN-II compared to cells expressing wild-type protein” value in the assay on Reh cells [1] is on record as “no resistance was seen”.
Still for that read-out and setting: with `C[C@]12C=CC(=O)C=C1CC[C@@H]1[C@@H]2[C@@H](O)C[C@@]2(C)[C@H]1CC[C@]2(O)C(=O)CO` [prednisolone] the entry was “no resistance was seen”.
Regarding `Sc1ncnc2nc[nH]c12` [6-mercaptopurine], the “level of thioguanine nucleotides in cells expressing mutant cN-II compared to control cells expressing wild-type protein or GFP” value in the assay with Reh cells [2] is on record as “reduction in the level of thioguanine nucleotides”. For the same compound, the “resistance to apoptosis of cells expressing mutant forms of cN-II compared to cells expressing wild-type protein” value with Reh cells [1] is “significantly more resistant to apoptosis”.
With `Nc1nc2nc[nH]c2c(=S)[nH]1` [6-thioguanine], the “resistance to apoptosis of cells expressing mutant forms of cN-II compared to cells expressing wild-type protein” value in the assay on Reh cells [1] is “significantly more resistant to apoptosis”.
